# Test results from US8901038B2, “Biphenyl-substituted cyclic ketoenols” (Bayer CropScience AG, priority 2010, dated 2014).
# Assays:
# Format in all cases: in vivo
# [1] = system: greenhouse red spider mite (Tetranychus urticae); test: Tetranychus test; OP-resistant (TETRUR spray treatment); conditions: application rate 100 g/ha; bean leaf discs sprayed; after 6 days
# Procedure: Tetranychus Test; OP-Resistant (TETRUR Spray Treatment)
# (§1) • Solvents: 78.0 parts by weight of acetone • 1.5 parts by weight of dimethylformamide • Emulsifier: 0.5 part by weight of alkylaryl polyglycol ether
# To produce a suitable preparation of active compound, 1 part by weight of active compound is mixed with the stated amounts of solvent and emulsifier, and the concentrate is diluted with emulsifier-containing water to the desired concentration. Discs of bean leaves (Phaseolus vulgaris), which are infested by all stages of the greenhouse red spider mite (Tetranychus urticae) are sprayed with an active compound preparation of the desired concentration.
# After 6 days, the effect in % is determined. 100% means that all spider mites have been killed; 0% means that none of the spider mites have been killed.
# [2] = system: green peach aphid (Myzus persicae); test: Myzus test (MYZUPE spray treatment); conditions: Chinese cabbage leaf discs sprayed, after 6 days
# Procedure: Myzus Test (MYZUPE Spray Treatment)
# • Solvents: 78 parts by weight of acetone • 1.5 parts by weight of dimethylformamide • Emulsifier: 0.5 part by weight of alkylaryl polyglycol ether
# To produce a suitable preparation of active compound, 1 part by weight of active compound is mixed with the stated amounts of solvent and emulsifier, and the concentrate is diluted with emulsifier-containing water to the desired concentration. Discs of Chinese cabbage (Brassica pekinensis) which are infested by all stages of the green peach aphid (Myzus persicae) are sprayed with an active compound preparation of the desired concentration. After 6 days, the effect in % is determined. 100% means that all aphids have been killed; 0% means that none of the aphids have been killed.
# [3] = system: caterpillars of the armyworm (Spodoptera frugiperda); test: Spodoptera frugiperda test (SPODFR spray treatment); conditions: application rate 500 g/ha; maize leaf discs sprayed; after 7 days
# Procedure: Spodoptera frugiperda Test (SPODFR Spray Treatment)
# as §1
# To produce a suitable preparation of active compound, 1 part by weight of active compound is mixed with the stated amounts of solvent and emulsifier, and the concentrate is diluted with emulsified water to the desired concentration. Discs of maize leaves (Zea mays) are sprayed with an active compound preparation of the desired concentration and, after drying, populated with caterpillars of the armyworm (Spodoptera frugiperda).
# After 7 days, the effect in % is determined. 100% means that all caterpillars have been killed; 0% means that none of the caterpillars have been killed.
# [4] = system: larvae of the mustard beetle (Phaedon cochleariae); test: Phaedon test (PHAECO spray treatment); conditions: application rate 500 g/ha; Chinese cabbage leaf discs sprayed; after 7 days
# Procedure: Phaedon Test (PHAECO Spray Treatment)
# as §1
# To produce a suitable preparation of active compound, one part by weight of active compound is mixed with the stated amounts of solvents and emulsifier, and the concentrate is diluted with emulsifier-containing water to the desired concentration. […].
# After 7 days, the effect in % is determined. 100% means that all beetle larvae have been killed; 0% means that none of the beetle larvae have been killed.
# [5] = system: Boophilus microplus; test: Boophilus microplus test (BOOPMI injection); conditions: application rate 20 μg/animal; injection into the abdomen; after 7 days
# Procedure: Boophilus microplus Test (BOOPMI Injection)
# (§2) • Solvent: Dimethyl sulphoxide
# To produce a suitable preparation of active compound, 10 mg of active compound are mixed with 0.5 ml of solvent and the concentrate is diluted with solvent to the desired concentration. The solution of active compound is injected into the abdomen (Boophilus microplus) and the animals are transferred into dishes and stored in a climatized room. The efficacy is monitored for deposition of fertile eggs.
# After 7 days, the effect in % is determined. 100% means that none of the ticks has laid any fertile eggs.
# [6] = system: Lucilia cuprina larvae; test: Lucilia cuprina test (LUCICU); conditions: application rate 100 ppm; treated horse meat; after 2 days
# Procedure: Lucilia cuprina test (LUCICU)
# as §2
# To produce a suitable preparation of active compound, 10 mg of active compound are mixed with 0.5 ml of dimethyl sulphoxide and the concentrate is diluted with water to the desired concentration. Containers containing horse meat treated with the active compound preparation of the desired concentration are populated with about 20 Lucilia cuprina larvae.
# After 2 days, the kill in % is determined. 100% means that all larvae have been killed; 0% means that none of the larvae have been killed.
smiles,measurement,setting,value
CCc1ccc(-c2ccc(Cl)cc2)c(C)c1C1=C(O)C2(CCOCC2)OC1=O [Example I-2-a-7],efficacy (spider mites killed),[1],100%
same,efficacy (aphids killed),[2]; application rate 500 g/ha,100%
same,efficacy (caterpillars killed),[3],100%
"CCc1ccc(-c2ccc(Cl)cc2)c(C)c1C1=C(O)C2(CCC(OC)CC2)OC1=O (single isomer, unassigned) [Example I-2-a-6]",efficacy (beetle larvae killed),[4],100%
same,efficacy (spider mites killed),[1],100%
same,efficacy (aphids killed),[2]; application rate 500 g/ha,100%
O=C1NC2(CCOCC2)C(O)=C1c1c(Cl)ccc(-c2ccc(Cl)cc2)c1Cl [Example I-1-a-2],efficacy (deposition of fertile eggs),[5],95%
same,efficacy (kill of larvae),[6],100%
same,efficacy (aphids killed),[2]; application rate 500 g/ha,100%
same,efficacy (caterpillars killed),[3],100%
CCc1c(-c2ccc(F)cc2)ccc(C)c1C1=C(O)C2(CCOCC2)NC1=O [Example I-1-a-10],efficacy (deposition of fertile eggs),[5],80%
same,efficacy (kill of larvae),[6],90%
same,efficacy (spider mites killed),[1],100%
same,efficacy (aphids killed),[2]; application rate 500 g/ha,100%
CCOC(=O)OC1=C(c2c(CC)ccc(-c3ccc(Cl)cc3)c2C)C(=O)NC12CCC(OC)CC2 (stereo not drawn) [Example I-1-c-2],efficacy (spider mites killed),[1],100%
same,efficacy (aphids killed),[2]; application rate 500 g/ha,100%
CCc1ccc(-c2ccc(Cl)cc2)c(CC)c1C1=C(O)C2(CCOCC2)OC1=O [Example I-2-a-3],efficacy (spider mites killed),[1],100%
same,efficacy (aphids killed),[2]; application rate 500 g/ha,90%
"CCc1ccc(-c2ccc(Cl)cc2)c(C)c1C1=C(O)C2(CCC(OC)CC2)OC1=O (single isomer, unassigned) [Example I-2-a-5]",efficacy (beetle larvae killed),[4],100%
same,efficacy (aphids killed),[2]; application rate 500 g/ha,90%
CCc1ccc(-c2ccc(F)cc2)c(C)c1C1=C(O)C2(CCOCC2)NC1=O [Example I-1-a-5],efficacy (spider mites killed),[1],90%
same,efficacy (aphids killed),[2]; application rate 500 g/ha,100%
CCc1ccc(-c2ccc(Cl)cc2)c(C)c1C1=C(O)C2(CCC(OC)CC2)NC1=O (stereo not drawn) [Example I-1-a-21],efficacy (spider mites killed),[1],100%
same,efficacy (aphids killed),[2]; application rate 500 g/ha,100%
CCc1ccc(-c2ccc(F)cc2)c(CC)c1C1=C(O)C2(CCC(OC)CC2)NC1=O (stereo not drawn) [Example I-1-a-18],efficacy (spider mites killed),[1],100%
same,efficacy (aphids killed),[2]; application rate 500 g/ha,100%
CCON1CCC2(CC1)NC(=O)C(c1c(CC)ccc(-c3ccc(Cl)cc3)c1C)=C2O [Example I-1-a-22],efficacy (beetle larvae killed),[4],100%
same,efficacy (spider mites killed),[1],90%
same,efficacy (aphids killed),[2]; application rate 500 g/ha,100%
CCc1ccc(-c2ccc(Cl)cc2)c(C)c1C1=C(OC(=O)C(C)C)C2(CCC(OC)CC2)NC1=O (stereo not drawn) [Example I-1-b-4],efficacy (spider mites killed),[1],90%
same,efficacy (aphids killed),[2]; application rate 500 g/ha,100%
same,efficacy (caterpillars killed),[3],100%
CCc1ccc(-c2ccc(Cl)cc2)c(CC)c1C1=C(O)[C@]2(CC[C@H](OC)CC2)OC1=O [Example I-2-a-1],efficacy (beetle larvae killed),[4],100%
same,efficacy (spider mites killed),[1],100%
same,efficacy (aphids killed),[2]; application rate 500 g/ha,90%
CCc1ccc(-c2ccc(Cl)cc2)c(CC)c1C1=C(O)C2(CCC(OC)CC2)NC1=O (stereo not drawn) [Example I-1-a-19],efficacy (beetle larvae killed),[4],100%
same,efficacy (spider mites killed),[1],90%
CCOC(=O)OC1=C(c2c(CC)ccc(-c3ccc(Cl)cc3)c2CC)C(=O)NC12CCOCC2 [Example I-1-c-1],efficacy (aphids killed),[2]; application rate 500 g/ha,90%
CCc1ccc(-c2ccc(Cl)cc2)c(CC)c1C1=C(O)[C@]2(CC[C@@H](OC)CC2)OC1=O [Example I-2-a-2],efficacy (aphids killed),[2]; application rate 500 g/ha,90%
CCc1c(-c2ccc(F)cc2)ccc(C)c1C1=C(O)C2(CCC(OC)CC2)NC1=O (stereo not drawn) [Example I-1-a-9],efficacy (deposition of fertile eggs),[5],100%
same,efficacy (beetle larvae killed),[4],83%
same,efficacy (spider mites killed),[1],70%
same,efficacy (aphids killed),[2]; application rate 500 g/ha,90%
CCc1ccc(-c2ccc(F)cc2)c(C)c1C1=C(OC(=O)C(C)C)C2(CCC(OC)CC2)NC1=O (stereo not drawn) [Example I-1-b-3],efficacy (spider mites killed),[1],100%
same,efficacy (aphids killed),[2]; application rate 500 g/ha,90%
CCc1ccc(-c2ccc(Cl)cc2)c(C)c1C1=C(O)C2(CCOCC2)NC1=O [Example I-1-a-3],efficacy (deposition of fertile eggs),[5],80%
same,efficacy (beetle larvae killed),[4],100%
same,efficacy (spider mites killed),[1],90%
same,efficacy (aphids killed),[2]; application rate 500 g/ha,100%
same,efficacy (caterpillars killed),[3],80%
Cc1c(-c2ccc(F)cc2)ccc(Cl)c1C1=C(O)C2(CCOCC2)NC1=O [Example I-1-a-13],efficacy (deposition of fertile eggs),[5],80%
same,efficacy (kill of larvae),[6],90%
same,efficacy (spider mites killed),[1],100%
same,efficacy (aphids killed),[2]; application rate 500 g/ha,100%
same,efficacy (caterpillars killed),[3],100%
CCc1ccc(-c2ccc(Cl)cc2)c(CC)c1C1=C(O)C2(CCOCC2)NC1=O [Example I-1-a-1],efficacy (beetle larvae killed),[4],100%
same,efficacy (spider mites killed),[1],80%
same,efficacy (aphids killed),[2]; application rate 500 g/ha,100%
CCc1cc(C)c(-c2ccc(Cl)cc2)c(C)c1C1=C(O)C2(CCOCC2)NC1=O [Example I-1-a-8],efficacy (beetle larvae killed),[4],100%
same,efficacy (spider mites killed),[1],90%
same,efficacy (aphids killed),[2]; application rate 500 g/ha,100%
CCc1ccc(-c2ccc(F)cc2)c(C)c1C1=C(O)C2(CCC(OC)CC2)NC1=O (stereo not drawn) [Example I-1-a-4],efficacy (beetle larvae killed),[4],83%
same,efficacy (spider mites killed),[1],100%
same,efficacy (aphids killed),[2]; application rate 500 g/ha,90%
"CCOC(=O)OC1=C(c2c(CC)ccc(-c3ccc(F)cc3)c2C)C(=O)NC12CCC(OC)CC2 (single isomer, unassigned) [Example I-1-c-3]",efficacy (spider mites killed),[1],90%
same,efficacy (aphids killed),[2]; application rate 500 g/ha,100%
Cc1c(-c2ccc(Cl)cc2)ccc(Cl)c1C1=C(O)C2(CCOCC2)NC1=O [Example I-1-a-15],efficacy (kill of larvae),[6],100%
same,efficacy (spider mites killed),[1],90%
same,efficacy (aphids killed),[2]; application rate 500 g/ha,100%
same,efficacy (caterpillars killed),[3],83%
CCc1cc(C)c(-c2ccc(Cl)cc2)c(C)c1C1=C(O)C2(CCC(OC)CC2)NC1=O (stereo not drawn) [Example I-1-a-7],efficacy (beetle larvae killed),[4],100%
same,efficacy (spider mites killed),[1],90%
same,efficacy (aphids killed),[2]; application rate 100 g/ha,90%
CCc1c(-c2ccc(F)cc2)ccc(C)c1C1=C(OC(=O)C(C)C)C2(CCC(OC)CC2)NC1=O (stereo not drawn) [Example I-1-b-2],efficacy (aphids killed),[2]; application rate 500 g/ha,90%
CCc1ccc(-c2ccc(Cl)cc2)c(C)c1C1=C(O)C2(CCN(OC)CC2)NC1=O [Example I-1-a-23],efficacy (beetle larvae killed),[4],100%
same,efficacy (spider mites killed),[1],90%
same,efficacy (aphids killed),[2]; application rate 500 g/ha,100%
CCc1ccc(-c2ccc(F)cc2)c(CC)c1C1=C(O)C2(CCOCC2)NC1=O [Example I-1-a-20],efficacy (spider mites killed),[1],100%
same,efficacy (aphids killed),[2]; application rate 500 g/ha,100%
O=C1NC2(CCOCC2)C(O)=C1c1c(Cl)ccc(-c2ccc(F)cc2)c1Cl [Example I-1-a-6],efficacy (deposition of fertile eggs),[5],90%
same,efficacy (spider mites killed),[1],100%
same,efficacy (aphids killed),[2]; application rate 500 g/ha,100%
CCc1ccc(-c2ccc(Cl)cc2)c(CC)c1C1=C(O)C2(CCN(OC)CC2)NC1=O [Example I-1-a-24],efficacy (spider mites killed),[1],100%
CCc1c(-c2ccc(Cl)cc2)ccc(C)c1C1=C(O)C2(CCOCC2)NC1=O [Example I-1-a-17],efficacy (spider mites killed),[1],100%
same,efficacy (aphids killed),[2]; application rate 500 g/ha,100%
CCc1c(-c2ccc(Cl)cc2)ccc(C)c1C1=C(O)C2(CCC(OC)CC2)NC1=O (stereo not drawn) [Example I-1-a-16],efficacy (spider mites killed),[1],90%
same,efficacy (aphids killed),[2]; application rate 500 g/ha,100%
same,efficacy (caterpillars killed),[3],100%
CCc1ccc(-c2ccc(Cl)cc2)c(CC)c1C1=C(OC(=O)C(C)C)C2(CCOCC2)NC1=O [Example I-1-b-1],efficacy (spider mites killed),[1],80%
same,efficacy (caterpillars killed),[3],83%
